Holding throughout (assay type): functional
For experiment [1], the system named is Leishmania donovani. As to the kind of experiment: Antileishmanial activity against Leishmania donovani LCR-L133 amastigotes at 100 ug/ml after 24 hrs relative to control.
The subject of experiment [2] is Leishmania donovani. Nature of the experiment: Antileishmanial activity against Leishmania donovani LCR-L133 amastigotes at 10 ug/ml after 48 hrs relative to control.
Experiment [3] has as its system Leishmania donovani. Nature of the experiment: Antileishmanial activity against Leishmania donovani LCR-L133 promastigotes at 1 […] after 72 hrs relative to control.
Experiment [4] deals with Leishmania donovani. As to the kind of experiment: Antileishmanial activity against Leishmania donovani LCR-L133 amastigotes at 10 ug/ml after 72 hrs relative to control.
The test system of experiment [5] is Leishmania donovani. As to the kind of experiment: Antileishmanial activity against Leishmania donovani LCR-L133 amastigotes at 100 ug/ml after 72 hrs relative to control.
Experiment [6] deals with Leishmania donovani. As to the kind of experiment: Antileishmanial activity against Leishmania donovani LCR-L133 amastigotes at 1 ug/ml after 72 hrs relative to control.
Experiment [7] concerns Leishmania donovani. As to the kind of experiment: Antileishmanial activity against Leishmania donovani LCR-L133 amastigotes at 10 ug/ml after 24 hrs relative to control.
Experiment [8] deals with Leishmania donovani. As to the kind of experiment: Antileishmanial activity against Leishmania donovani LCR-L133 promastigotes at 10 […] after 48 hrs relative to control.
Experiment [9] concerns Leishmania donovani. As to the kind of experiment: Antileishmanial activity against Leishmania donovani LCR-L133 amastigotes at 1 ug/ml after 48 hrs relative to control.
Experiment [10] concerns Leishmania donovani. Nature of the experiment: Antileishmanial activity against Leishmania donovani LCR-L133 amastigotes at 1 ug/ml after 24 hrs relative to control.
Experiment [11] deals with Leishmania donovani. Nature of the experiment: Antileishmanial activity against Leishmania donovani LCR-L133 promastigotes at 10 […] after 72 hrs relative to control.
The subject of experiment [12] is Leishmania donovani. Nature of the experiment: Antileishmanial activity against Leishmania donovani LCR-L133 promastigotes at 1 […] after 24 hrs relative to control.
Experiment [13] concerns Leishmania donovani. Nature of the experiment: Antileishmanial activity against Leishmania donovani LCR-L133 promastigotes at 100 […] after 24 hrs relative to control.
The test system of experiment [14] is Leishmania donovani. As to the kind of experiment: Antileishmanial activity against Leishmania donovani LCR-L133 promastigotes at 100 […] after 72 hrs relative to control.
Experiment [15] concerns Leishmania donovani. Nature of the experiment: Antileishmanial activity against Leishmania donovani LCR-L133 promastigotes at 10 […] after 24 hrs relative to control.
Experiment [16] relates to Leishmania donovani. Nature of the experiment: Antileishmanial activity against Leishmania donovani LCR-L133 promastigotes at 100 […] after 48 hrs relative to control.
Experiment [17] has as its system Leishmania donovani. As to the kind of experiment: Antileishmanial activity against Leishmania donovani LCR-L133 promastigotes at 1 […] after 48 hrs relative to control.
Experiment [18] relates to Leishmania donovani. As to the kind of experiment: Antileishmanial activity against Leishmania donovani LCR-L133 amastigotes at 100 ug/ml after 48 hrs relative to control.

With `C=C[C@@]1(C)CC[C@H]2[C@]3(C)CC[C@@H](O)C(C)(C)[C@H]3[C@@H](O)C[C@]2(C)O1`, the Activity worked out at 34% with Leishmania donovani [1]; 24% in the experiment on Leishmania donovani [2]; 0% in the experiment on Leishmania donovani [3]; 33% with Leishmania donovani [4]; 67% in the experiment on Leishmania donovani [5]; 14% in the experiment with Leishmania donovani [6]. In addition, the Activity was 10% with Leishmania donovani [7]; 0% with Leishmania donovani [8]; 0% with Leishmania donovani [9]; 0% with Leishmania donovani [10]; 0% in the experiment on Leishmania donovani [11]; 0% in the experiment with Leishmania donovani [12]. Besides, the Activity in the experiment with Leishmania donovani [13] is 0%; with Leishmania donovani [14], 0%; with Leishmania donovani [15], 0%; in the experiment on Leishmania donovani [16], 52%; with Leishmania donovani [17], 0%; in the experiment on Leishmania donovani [18] it was 51%.
Turning to `C=C[C@]1(C)O[C@@]2(C)C[C@H](O)[C@@H]3C(C)(C)[C@H](O)CC[C@@]3(C)[C@@H]2CC1=O`, the Activity in the experiment with Leishmania donovani [1] was found to be 14%; in the experiment on Leishmania donovani [2] it was 0%; with Leishmania donovani [3], 0%; in the experiment on Leishmania donovani [4], 0%; with Leishmania donovani [5], 19%; with Leishmania donovani [6], 0%. The Activity in the experiment on Leishmania donovani [7], with Leishmania donovani [8], in the experiment on Leishmania donovani [9], in the experiment with Leishmania donovani [10], in the experiment with Leishmania donovani [11] and in the experiment on Leishmania donovani [12] was 0% throughout. Further, the Activity turned out to be 0% in the experiment on Leishmania donovani [13]; 0% with Leishmania donovani [14]; 0% with Leishmania donovani [15]; 0% in the experiment with Leishmania donovani [16]; 0% in the experiment on Leishmania donovani [17]; 15% in the experiment on Leishmania donovani [18].
For the compound `C=C[C@@]1(C)CC[C@H]2[C@]3(C)CCC(=O)C(C)(C)[C@H]3CC[C@]2(C)O1`, the Activity with Leishmania donovani [1] is 20%; in the experiment on Leishmania donovani [2] it was 17%; with Leishmania donovani [3], 0%; in the experiment with Leishmania donovani [4] it was 25%; in the experiment with Leishmania donovani [5] it was 56%; in the experiment with Leishmania donovani [6] it was 10%. For the same compound, the Activity in the experiment with Leishmania donovani [7] is 7%; in the experiment on Leishmania donovani [8], 0%; with Leishmania donovani [9], 10%; with Leishmania donovani [10], 0%; in the experiment on Leishmania donovani [11] it was 0%; in the experiment on Leishmania donovani [12], 0%. In addition, the Activity is on record as 51% in the experiment with Leishmania donovani [13]; 80% in the experiment on Leishmania donovani [14]; 0% in the experiment on Leishmania donovani [15]; 86% in the experiment with Leishmania donovani [16]; 0% in the experiment on Leishmania donovani [17]; 48% with Leishmania donovani [18].
As for `C=C[C@]1(C)O[C@@]2(C)CC[C@@H]3C(C)(C)C(=O)CC[C@@]3(C)[C@@H]2CC1=O`, the Activity in the experiment on Leishmania donovani [1] amounted to 22%; in the experiment on Leishmania donovani [2], 7%; in the experiment with Leishmania donovani [3], 0%; with Leishmania donovani [4] it was 11%; in the experiment with Leishmania donovani [5] it was 36%; in the experiment with Leishmania donovani [6], 0%. Also, the Activity in the experiment with Leishmania donovani [7], in the experiment with Leishmania donovani [8], in the experiment with Leishmania donovani [9], with Leishmania donovani [10], in the experiment with Leishmania donovani [11] and in the experiment on Leishmania donovani [12] was 0% each time. The Activity with Leishmania donovani [13] is on record as 0%; in the experiment with Leishmania donovani [14] it was 0%; in the experiment on Leishmania donovani [15], 0%; in the experiment with Leishmania donovani [16], 25%; in the experiment on Leishmania donovani [17] it was 0%; in the experiment on Leishmania donovani [18] it was 31%.
Take `C=C[C@]1(C)O[C@@]2(C)C[C@H](O)[C@@H]3C(C)(C)[C@H](O)CC[C@@]3(C)[C@@H]2C[C@@H]1O`: the Activity in the experiment on Leishmania donovani [1] stood at 35%; with Leishmania donovani [2] it was 11%; in the experiment on Leishmania donovani [3], 0%; in the experiment on Leishmania donovani [4], 16%; in the experiment with Leishmania donovani [5] it was 50%; with Leishmania donovani [6], 0%. In addition, the Activity in the experiment with Leishmania donovani [7] worked out at 7%; in the experiment with Leishmania donovani [8], 0%; in the experiment with Leishmania donovani [9] it was 0%; with Leishmania donovani [10], 0%; in the experiment with Leishmania donovani [11], 0%; with Leishmania donovani [12] it was 0%. For the same compound, the Activity was 0% in the experiment on Leishmania donovani [13]; 0% in the experiment with Leishmania donovani [14]; 0% in the experiment with Leishmania donovani [15]; 0% with Leishmania donovani [16]; 0% in the experiment on Leishmania donovani [17]; 46% in the experiment on Leishmania donovani [18].
Regarding `C=C[C@]1(C)O[C@@]2(C)CC[C@@H]3C(C)(C)[C@H](O)CC[C@@]3(C)[C@@H]2C[C@@H]1O`, the Activity worked out at 15% in the experiment on Leishmania donovani [1]; 6% in the experiment on Leishmania donovani [2]; 0% in the experiment on Leishmania donovani [3]; 11% with Leishmania donovani [4]; 35% with Leishmania donovani [5]; 0% with Leishmania donovani [6]. Besides, the Activity in the experiment on Leishmania donovani [7], with Leishmania donovani [8], in the experiment on Leishmania donovani [9], in the experiment with Leishmania donovani [10], with Leishmania donovani [11] and in the experiment with Leishmania donovani [12] was 0% in each case. The Activity in the experiment on Leishmania donovani [13] is 0%; with Leishmania donovani [14] it was 0%; with Leishmania donovani [15], 0%; with Leishmania donovani [16] it was 31%; in the experiment on Leishmania donovani [17], 0%; in the experiment on Leishmania donovani [18], 31%.
Turning to `C=C[C@]1(C)O[C@@]2(C)CC[C@@H]3C(C)(C)[C@@H](OC(C)=O)CC[C@@]3(C)C2=CC1=O`, the Activity in the experiment with Leishmania donovani [1] came out at 32%; in the experiment with Leishmania donovani [2] it was 21%; in the experiment on Leishmania donovani [3], 0%; in the experiment with Leishmania donovani [4], 34%; in the experiment on Leishmania donovani [5], 50%; in the experiment with Leishmania donovani [6], 12%. For the same compound, the Activity is recorded as 12% in the experiment on Leishmania donovani [7]; 0% in the experiment with Leishmania donovani [8]; 0% in the experiment with Leishmania donovani [9]; 0% with Leishmania donovani [10]; 0% in the experiment on Leishmania donovani [11]; 0% in the experiment on Leishmania donovani [12]. Further, the Activity in the experiment on Leishmania donovani [13] came out at 100%; with Leishmania donovani [14], 100%; in the experiment with Leishmania donovani [15], 0%; with Leishmania donovani [16] it was 100%; with Leishmania donovani [17] it was 0%; in the experiment with Leishmania donovani [18], 45%.
Consider `C=C[C@@]1(C)CC[C@H]2[C@]3(C)CC[C@@H](O)C(C)(C)[C@H]3CC[C@]2(C)O1`, for which the Activity in the experiment with Leishmania donovani [1] is recorded as 17%; with Leishmania donovani [2], 13%; in the experiment with Leishmania donovani [3], 0%; in the experiment on Leishmania donovani [4], 18%; with Leishmania donovani [5], 39%; in the experiment with Leishmania donovani [6], 0%. Besides, the Activity with Leishmania donovani [7] came out at 0%; in the experiment with Leishmania donovani [8] it was 0%; with Leishmania donovani [9] it was 7%; in the experiment with Leishmania donovani [10], 0%; with Leishmania donovani [11], 0%; in the experiment on Leishmania donovani [12] it was 0%. The Activity in the experiment with Leishmania donovani [13] was 27%; with Leishmania donovani [14] it was 52%; in the experiment on Leishmania donovani [15], 0%; in the experiment on Leishmania donovani [16] it was 70%; with Leishmania donovani [17], 0%; in the experiment on Leishmania donovani [18], 25%.
For the compound `C=C[C@@]1(CO)CC[C@H]2[C@]3(C)CCC[C@](C)(C(=O)OC)[C@H]3CC[C@]2(C)O1`, the Activity came out at 47% with Leishmania donovani [1]; 26% with Leishmania donovani [2]; 0% with Leishmania donovani [3]; 35% in the experiment with Leishmania donovani [4]; 67% with Leishmania donovani [5]; 13% with Leishmania donovani [6]. The Activity was determined as 17% in the experiment with Leishmania donovani [7]; 0% in the experiment with Leishmania donovani [8]; 12% in the experiment with Leishmania donovani [9]; 0% in the experiment with Leishmania donovani [10]; 0% with Leishmania donovani [11]; 0% in the experiment on Leishmania donovani [12]. In addition, the Activity in the experiment with Leishmania donovani [13] amounted to 0%; with Leishmania donovani [14] it was 79%; with Leishmania donovani [15] it was 0%; in the experiment with Leishmania donovani [16], 62%; in the experiment on Leishmania donovani [17] it was 0%; in the experiment with Leishmania donovani [18], 58%.
Turning to MEGLUMINE ANTIMONATE, the Activity in the experiment on Leishmania donovani [3] was found to be 39%; in the experiment with Leishmania donovani [8], 40%; in the experiment on Leishmania donovani [11], 42%; with Leishmania donovani [12], 4%; in the experiment on Leishmania donovani [13], 70%; in the experiment with Leishmania donovani [14] it was 76%. Besides, the Activity stood at 28% with Leishmania donovani [15], 74% in the experiment with Leishmania donovani [16] and 20% in the experiment with Leishmania donovani [17].

The values are drawn from ChEMBL document CHEMBL1145677, “In Vitro Action of ent -Manoyl Oxides against Leishmania donovani” (1997).
